From US20040185102A1, “Dosage forms comprising a CETP inhibitor and an HMG-CoA reductase inhibitor” (Pfizer Inc, priority 2002, published 2004)

Columns and labels:
aqueous solubility = assay type: physicochemical
[1] = in vitro dissolution test using a microcentrifuge method; assay type: physicochemical; conditions: for AUC / Torcetrapib Concentration: PBS pH 6.5, 37° C.; for Torcetrapib Concentration: 1000 μg/mL if all drug dissolved
Procedure: The spray-dried solid amorphous dispersion was evaluated in an in vitro dissolution test using a microcentrifuge method. In this test, 7.2 mg of the spray-dried solid amorphous dispersion was placed into a microcentrifuge tube. The tube was placed in a 37° C. sonicating bath, and 1.8 mL phosphate buffered saline (PBS) at pH 6.5 and 290 mOsm/kg was added, resulting in a torcetrapib concentration of 1000 μg/mL if all of the drug had dissolved. The sample was quickly mixed using a vortex mixer for about 60 seconds. The sample was centrifuged at 13,000 G at 37° C. for 1 minute. The resulting supernatant solution was then sampled and diluted 1:6 (by volume with methanol and then analyzed by high-performance liquid chromatography (HPLC). The contents of the tube was mixed on the vortex mixer and allowed to stand undisturbed at 37° C. until the next sample was taken. Samples were collected at 4, 10, 20, 40, 90, and 1200 minutes. The concentrations of drug obtained in these samples are shown in Table 1, which represent the average of duplicate tests.
As a control, an in vitro dissolution test was performed using the procedures described above except that 1.8 mg of crystalline drug was used. […]

## CCOC(=O)N1c2ccc(C(F)(F)F)cc2[C@@H](N(Cc2cc(C(F)(F)F)cc(C(F)(F)F)c2)C(=O)OC)C[C@H]1CC [Crystalline Drug, [2R,4S]-4-[(3,5-bis-trifluoromethyl-benzyl)-methoxycarbonyl-amino]-2-ethyl-6-trifluoromethyl-3,4-dihydro-2H-quinoline-1-carboxylic acid ethyl ester]
Aqueous solubility
  solubility: < 0.04 µg/mL
[1]; receptor solution PBS
  AUC90 (area under the aqueous concentration versus time curve after 90 minutes): <88 min-μg/mL
  Cmax,90 (maximum concentration of torcetrapib in solution during the first 90 minutes): <1000 ng/mL
[1]; time 0 min
  AUC: 0 min-μg/mL
  Torcetrapib Concentration: 0 µg/mL
[1]; time 4 min
  AUC: <2 min-μg/mL
  Torcetrapib Concentration: <1 µg/mL
[1]; time 10 min
  AUC: <8 min-μg/mL
  Torcetrapib Concentration: <1 µg/mL
[1]; time 20 min
  AUC: <18 min-μg/mL
  Torcetrapib Concentration: <1 µg/mL
[1]; time 40 min
  AUC: <38 min-μg/mL
  Torcetrapib Concentration: <1 µg/mL
[1]; time 90 min
  AUC: <88 min-μg/mL
  Torcetrapib Concentration: <1 µg/mL
[1]; time 1200 min
  AUC: <1,200 min-μg/mL
  Torcetrapib Concentration: <1 µg/mL
